Consider seven molecules from ChEMBL document CHEMBL1201862, “PubChem BioAssay data set” (2004).

Activity calls are given as the source filed them.

The nature of assay [1]: viability of uninfected HEp-2 cells – cell-based, HTS, cytotoxicity control for RSV inhibitor project, dose response (AID 2410). The settings on record: human respiratory syncytial virus. In kind it is functional.
Assay [2] deals with Neurotensin receptor type 1 (Homo sapiens, UniProt P30989). In kind it is functional.
In assay [3] the target is T1, Microphthalmia-associated transcription factor (Homo sapiens, UniProt O75030).
T1 sequence (O75030 whole entry): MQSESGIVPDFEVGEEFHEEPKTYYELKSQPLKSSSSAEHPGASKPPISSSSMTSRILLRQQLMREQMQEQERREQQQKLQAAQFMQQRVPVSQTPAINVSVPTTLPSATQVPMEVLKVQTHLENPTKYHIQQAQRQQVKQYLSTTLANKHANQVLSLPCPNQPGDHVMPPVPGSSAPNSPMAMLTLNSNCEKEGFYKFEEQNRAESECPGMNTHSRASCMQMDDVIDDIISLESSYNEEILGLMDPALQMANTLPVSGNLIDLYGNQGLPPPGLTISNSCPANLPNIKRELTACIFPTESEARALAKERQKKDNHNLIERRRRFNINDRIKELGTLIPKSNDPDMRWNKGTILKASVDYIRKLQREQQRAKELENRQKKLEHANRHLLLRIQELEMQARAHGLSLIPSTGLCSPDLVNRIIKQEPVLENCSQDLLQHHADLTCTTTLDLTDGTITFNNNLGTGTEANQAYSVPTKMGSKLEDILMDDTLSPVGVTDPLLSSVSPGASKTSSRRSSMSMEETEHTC
The experiment in a line: reducers of TRPM1 reporter luminescence, concentration series – cell-based, SK-MEL-5, cherry-picked, set 3, MITF inhibitor project, dose response (AID 493073).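 Note: SK-MEL-5 melanoma cells with luciferase driven by the MITF target TRPM1 promoter.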 Format: functional.

Assay [4] is described as follows: HEK-293T cell viability reduction – luminescence, B-cell screen hits, cytotoxicity control for BCR NF-kB inhibitor project, dose response (AID 489021).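 Note: HEK-293T cells carrying an NF-kB luciferase reporter; cells exposed to compound for about 14 hours before viability readout.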 Format: functional, cell-based.
Assay [5] deals with Trypsin (Sus scrofa, UniProt P00761). The experiment in a line: trypsin protease activity blockade – biochemical, quenched peptide fluorescence, cherry-pick, selectivity assay for Rce1 protease inhibitor project, dose response (AID 488789).
Assay [6] addresses T2, CAAX prenyl protease 1 (Saccharomyces cerevisiae S288c, UniProt P47154).
T2 sequence (P47154 whole entry): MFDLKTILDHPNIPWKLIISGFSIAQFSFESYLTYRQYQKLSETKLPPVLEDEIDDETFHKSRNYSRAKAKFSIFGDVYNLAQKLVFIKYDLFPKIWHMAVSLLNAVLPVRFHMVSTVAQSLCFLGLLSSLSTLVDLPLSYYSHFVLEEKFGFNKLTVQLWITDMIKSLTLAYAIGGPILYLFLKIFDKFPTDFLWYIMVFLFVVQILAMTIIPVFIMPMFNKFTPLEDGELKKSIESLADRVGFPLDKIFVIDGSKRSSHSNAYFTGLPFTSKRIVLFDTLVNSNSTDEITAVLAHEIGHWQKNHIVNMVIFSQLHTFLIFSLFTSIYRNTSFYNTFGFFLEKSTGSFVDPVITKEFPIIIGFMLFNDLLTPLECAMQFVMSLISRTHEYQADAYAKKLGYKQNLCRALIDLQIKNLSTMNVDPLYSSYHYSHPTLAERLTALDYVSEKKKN
The experiment in a line: yeast CAAX protease Ste24 inhibition – biochemical, S. cerevisiae, plate reader, cherry-pick, dose response (AID 488815).

Assay [7] has as its target T3, CAAX prenyl protease 2 (Homo sapiens, UniProt Q9Y256).
T3 sequence (Q9Y256 whole entry): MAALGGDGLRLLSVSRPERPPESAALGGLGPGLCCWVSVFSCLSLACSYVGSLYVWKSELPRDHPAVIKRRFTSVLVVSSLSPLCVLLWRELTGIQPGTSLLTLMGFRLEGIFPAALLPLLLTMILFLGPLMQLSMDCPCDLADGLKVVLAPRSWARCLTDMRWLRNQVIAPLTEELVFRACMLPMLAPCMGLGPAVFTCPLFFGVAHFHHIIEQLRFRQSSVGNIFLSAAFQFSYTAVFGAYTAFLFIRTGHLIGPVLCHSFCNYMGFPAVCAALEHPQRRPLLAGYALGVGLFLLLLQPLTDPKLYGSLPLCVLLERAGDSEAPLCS
The experiment in a line: inhibition of Ras-converting CAAX protease Rce1 – biochemical, yeast membranes, quenched-peptide fluorescence, cherry-pick, dose response (AID 588849).

Assay [8] has as its target T4, Cytochrome P450 1A2 (Homo sapiens, UniProt P05177).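 Note: PubChem cytochrome P450 panel assay, CYP1A2 panel member.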
T4 sequence (P05177 whole entry): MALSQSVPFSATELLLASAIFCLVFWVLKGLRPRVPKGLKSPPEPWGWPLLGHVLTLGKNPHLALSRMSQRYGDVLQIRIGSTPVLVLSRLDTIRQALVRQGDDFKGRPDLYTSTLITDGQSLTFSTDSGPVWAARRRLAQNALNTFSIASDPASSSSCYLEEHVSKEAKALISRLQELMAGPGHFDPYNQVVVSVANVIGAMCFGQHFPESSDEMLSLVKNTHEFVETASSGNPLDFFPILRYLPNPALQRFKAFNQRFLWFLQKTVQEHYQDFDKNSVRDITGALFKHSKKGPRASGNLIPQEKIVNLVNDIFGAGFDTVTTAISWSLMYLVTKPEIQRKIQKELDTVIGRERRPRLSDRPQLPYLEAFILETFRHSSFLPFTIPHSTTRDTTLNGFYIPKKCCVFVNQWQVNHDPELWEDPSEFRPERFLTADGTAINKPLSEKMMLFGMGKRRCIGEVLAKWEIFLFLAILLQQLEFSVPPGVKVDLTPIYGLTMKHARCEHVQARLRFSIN

For assay [9], the target named is Cytochrome P450 3A4 (Homo sapiens, UniProt P08684).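 Note: CYP3A4 tested as one member of a cytochrome P450 panel screen.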
Assay [10] deals with Eukaryotic translation initiation factor 4E (Mus musculus, UniProt P63073). The experiment in a line: blockers of eIF4G binding by eIF4E – biochemical, TR-FRET, dose response (AID 855).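 Note: potency for disrupting eIF4E binding to eIF4GI seen as loss of FRET.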 Format: functional.
For assay [11], the target named is T5, Replicative DNA helicase DnaB (Mycobacterium tuberculosis, UniProt P9WMR3).
T5 sequence (P9WMR3 whole entry): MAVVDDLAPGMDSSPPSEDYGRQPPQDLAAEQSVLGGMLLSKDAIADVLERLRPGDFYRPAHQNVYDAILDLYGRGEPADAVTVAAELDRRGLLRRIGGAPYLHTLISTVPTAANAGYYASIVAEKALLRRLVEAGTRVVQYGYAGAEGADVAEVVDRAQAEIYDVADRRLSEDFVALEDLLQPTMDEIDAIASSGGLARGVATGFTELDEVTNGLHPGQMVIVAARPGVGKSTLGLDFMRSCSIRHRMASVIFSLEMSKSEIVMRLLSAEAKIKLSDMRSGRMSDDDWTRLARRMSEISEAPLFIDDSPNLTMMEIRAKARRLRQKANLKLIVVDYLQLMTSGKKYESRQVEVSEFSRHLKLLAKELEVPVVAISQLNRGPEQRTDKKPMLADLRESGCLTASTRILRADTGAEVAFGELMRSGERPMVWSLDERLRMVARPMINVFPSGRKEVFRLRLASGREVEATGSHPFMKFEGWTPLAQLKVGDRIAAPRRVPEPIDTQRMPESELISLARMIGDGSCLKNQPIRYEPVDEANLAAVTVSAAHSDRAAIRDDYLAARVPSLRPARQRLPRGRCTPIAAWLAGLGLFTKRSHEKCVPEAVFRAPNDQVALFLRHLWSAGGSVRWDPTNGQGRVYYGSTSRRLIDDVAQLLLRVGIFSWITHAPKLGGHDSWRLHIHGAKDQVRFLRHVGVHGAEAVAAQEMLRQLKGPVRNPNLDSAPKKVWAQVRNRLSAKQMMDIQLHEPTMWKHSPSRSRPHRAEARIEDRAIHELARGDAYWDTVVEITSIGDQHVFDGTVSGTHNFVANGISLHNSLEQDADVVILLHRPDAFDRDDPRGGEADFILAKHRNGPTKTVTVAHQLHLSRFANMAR
As to the kind of experiment: DnaB intein splicing inhibitors, dose response, biochemical, cell-free fluorescence (AID 449749). In kind it is functional.

The target of assay [12] is T6, Protein RecA (Mycobacterium tuberculosis, UniProt P9WHJ3).
T6 sequence (P9WHJ3 whole entry): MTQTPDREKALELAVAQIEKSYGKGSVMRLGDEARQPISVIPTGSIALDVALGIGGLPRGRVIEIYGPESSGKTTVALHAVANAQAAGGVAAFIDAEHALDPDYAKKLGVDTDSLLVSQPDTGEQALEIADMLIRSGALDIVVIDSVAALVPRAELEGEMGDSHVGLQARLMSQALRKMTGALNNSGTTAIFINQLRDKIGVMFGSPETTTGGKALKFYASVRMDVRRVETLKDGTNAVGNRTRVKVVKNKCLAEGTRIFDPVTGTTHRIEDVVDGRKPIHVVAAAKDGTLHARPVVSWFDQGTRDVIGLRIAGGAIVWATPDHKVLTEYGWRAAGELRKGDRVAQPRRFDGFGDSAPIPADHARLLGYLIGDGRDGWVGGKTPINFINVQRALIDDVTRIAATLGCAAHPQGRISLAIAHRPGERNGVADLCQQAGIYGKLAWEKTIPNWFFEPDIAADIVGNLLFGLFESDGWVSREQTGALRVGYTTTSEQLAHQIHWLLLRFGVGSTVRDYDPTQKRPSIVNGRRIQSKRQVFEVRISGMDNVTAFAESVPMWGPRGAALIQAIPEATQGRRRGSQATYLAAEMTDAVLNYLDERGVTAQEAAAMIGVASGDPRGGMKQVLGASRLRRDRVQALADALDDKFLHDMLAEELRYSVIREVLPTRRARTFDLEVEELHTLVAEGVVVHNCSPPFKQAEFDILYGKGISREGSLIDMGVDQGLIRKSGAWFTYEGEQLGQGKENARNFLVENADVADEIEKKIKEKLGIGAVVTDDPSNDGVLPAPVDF
The experiment in a line: Fluorescence Cell-Free Homogeneous Dose Retest to Identify Inhibitors of RecA-Intein Splicing Activity. [Related pubchem assays (depositor defined):AID2097, AID2223, AID489010, AID492950]. In kind it is functional.

Assay [13] has as its target T7, Histone-lysine N-methyltransferase NSD2 (Homo sapiens, UniProt O96028).
T7 sequence (O96028 whole entry): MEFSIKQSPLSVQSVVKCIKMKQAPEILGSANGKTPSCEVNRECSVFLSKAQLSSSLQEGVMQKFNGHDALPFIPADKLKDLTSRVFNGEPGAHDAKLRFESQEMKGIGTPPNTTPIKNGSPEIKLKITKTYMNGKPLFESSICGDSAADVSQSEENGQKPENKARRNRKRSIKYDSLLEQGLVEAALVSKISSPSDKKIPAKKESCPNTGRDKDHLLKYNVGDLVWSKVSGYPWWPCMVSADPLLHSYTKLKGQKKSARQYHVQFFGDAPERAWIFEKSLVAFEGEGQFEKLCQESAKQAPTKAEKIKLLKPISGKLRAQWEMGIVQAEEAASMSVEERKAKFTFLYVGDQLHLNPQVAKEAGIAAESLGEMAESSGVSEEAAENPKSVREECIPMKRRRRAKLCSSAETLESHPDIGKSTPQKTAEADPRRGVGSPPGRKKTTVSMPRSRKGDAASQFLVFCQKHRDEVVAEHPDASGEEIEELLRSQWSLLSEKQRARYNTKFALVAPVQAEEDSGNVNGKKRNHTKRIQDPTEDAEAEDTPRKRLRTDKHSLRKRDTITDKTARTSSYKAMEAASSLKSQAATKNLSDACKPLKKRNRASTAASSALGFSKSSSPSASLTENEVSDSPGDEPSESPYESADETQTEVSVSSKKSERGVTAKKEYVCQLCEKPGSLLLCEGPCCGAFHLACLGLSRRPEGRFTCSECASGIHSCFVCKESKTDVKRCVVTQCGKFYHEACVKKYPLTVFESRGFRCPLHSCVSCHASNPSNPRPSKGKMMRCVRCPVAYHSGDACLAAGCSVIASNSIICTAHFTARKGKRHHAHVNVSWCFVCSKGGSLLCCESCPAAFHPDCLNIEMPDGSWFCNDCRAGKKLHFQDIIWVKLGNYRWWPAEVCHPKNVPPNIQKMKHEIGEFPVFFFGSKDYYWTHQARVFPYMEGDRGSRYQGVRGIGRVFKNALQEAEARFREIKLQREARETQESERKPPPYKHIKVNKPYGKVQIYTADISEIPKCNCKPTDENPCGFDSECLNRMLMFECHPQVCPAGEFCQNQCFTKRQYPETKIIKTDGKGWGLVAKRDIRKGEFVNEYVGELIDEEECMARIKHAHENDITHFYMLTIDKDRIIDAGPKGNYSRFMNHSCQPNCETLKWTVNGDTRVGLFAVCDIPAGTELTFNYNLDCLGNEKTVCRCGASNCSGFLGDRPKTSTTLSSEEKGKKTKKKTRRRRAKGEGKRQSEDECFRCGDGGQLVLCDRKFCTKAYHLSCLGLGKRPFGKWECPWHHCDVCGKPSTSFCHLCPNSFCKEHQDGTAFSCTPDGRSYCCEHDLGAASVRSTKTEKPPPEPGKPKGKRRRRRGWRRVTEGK
Format: biochemical.

Trypsin, sequence (P00761 whole entry): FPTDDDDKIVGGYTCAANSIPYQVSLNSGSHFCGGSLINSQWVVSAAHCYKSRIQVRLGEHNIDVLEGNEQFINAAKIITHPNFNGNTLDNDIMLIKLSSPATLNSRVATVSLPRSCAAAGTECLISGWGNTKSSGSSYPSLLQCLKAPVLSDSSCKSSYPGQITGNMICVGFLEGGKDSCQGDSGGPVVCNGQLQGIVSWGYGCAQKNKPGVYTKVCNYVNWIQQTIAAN
Eukaryotic translation initiation factor 4E, sequence (P63073 whole entry): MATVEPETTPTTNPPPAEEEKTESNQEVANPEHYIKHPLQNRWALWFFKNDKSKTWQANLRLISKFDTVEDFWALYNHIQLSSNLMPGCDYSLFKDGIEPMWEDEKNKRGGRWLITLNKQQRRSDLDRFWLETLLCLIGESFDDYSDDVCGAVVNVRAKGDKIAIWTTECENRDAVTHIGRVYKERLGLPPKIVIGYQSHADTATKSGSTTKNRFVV
Neurotensin receptor type 1, sequence (P30989 whole entry): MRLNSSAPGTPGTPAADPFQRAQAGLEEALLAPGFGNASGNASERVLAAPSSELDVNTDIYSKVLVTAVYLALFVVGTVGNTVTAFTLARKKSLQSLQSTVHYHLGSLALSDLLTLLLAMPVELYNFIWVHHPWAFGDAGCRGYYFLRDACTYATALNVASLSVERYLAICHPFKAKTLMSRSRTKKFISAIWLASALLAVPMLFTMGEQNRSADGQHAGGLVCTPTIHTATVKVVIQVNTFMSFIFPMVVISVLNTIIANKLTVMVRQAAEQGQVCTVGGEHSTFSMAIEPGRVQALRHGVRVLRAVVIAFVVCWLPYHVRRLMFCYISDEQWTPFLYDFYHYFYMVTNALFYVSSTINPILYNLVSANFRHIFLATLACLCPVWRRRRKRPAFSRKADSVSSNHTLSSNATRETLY
Cytochrome P450 3A4, sequence (P08684 whole entry): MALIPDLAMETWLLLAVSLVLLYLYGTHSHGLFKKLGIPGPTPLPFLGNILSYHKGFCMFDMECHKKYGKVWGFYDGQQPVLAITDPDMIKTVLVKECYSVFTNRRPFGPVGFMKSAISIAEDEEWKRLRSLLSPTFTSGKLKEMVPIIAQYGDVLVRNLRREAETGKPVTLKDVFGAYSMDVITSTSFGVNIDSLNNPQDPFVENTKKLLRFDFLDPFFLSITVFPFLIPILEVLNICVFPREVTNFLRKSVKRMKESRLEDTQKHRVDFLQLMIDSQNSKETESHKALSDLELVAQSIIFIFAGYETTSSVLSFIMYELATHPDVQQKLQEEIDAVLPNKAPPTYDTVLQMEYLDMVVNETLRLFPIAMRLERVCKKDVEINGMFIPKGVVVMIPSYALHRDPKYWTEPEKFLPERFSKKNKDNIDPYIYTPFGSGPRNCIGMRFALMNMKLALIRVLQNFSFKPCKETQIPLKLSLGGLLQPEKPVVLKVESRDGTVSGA

As to `Cc1cc(C)cc(N2C(=O)NC(=O)/C(=C\c3cccn3-c3ccccc3)C2=O)c1`, the CC50 (as a rule, the concentration at which the toxic effect on the cells reaches its halfway point) in assay [1] was 19.9 µM (active). Further, the EC50 (usually the concentration that produces a half-maximal response) in assay [2] was 10.3 µM (active). Moreover, the half-maximal activity concentration (AC50) (in general, the midpoint of the concentration-response curve, whichever way the signal moves) in assay [3] is 13.8 µM (active). The IC50 (usually the concentration at which inhibition is half-maximal) in assay [4] is > 80 µM (inactive).
For the molecule `CCOc1c2ccc(C(=O)NCc3ccco3)cc2nn1CCOC`, the AC50 in assay [5] is 16.5 µM (active); in assay [6] it was 11.5 µM (active); in [7], 12.3 µM (active); in assay [8], 15.8 µM (inconclusive); in [9] it was 22.4 µM (inconclusive).
On to `COc1ccc(CNC(=O)c2ccccc2NS(C)(=O)=O)cc1`, for which the AC50 in assay [5] was 12.4 µM (active); in assay [6] it was 5.47 µM (active); in [7], 11.7 µM (active).
On to `CCN(CC)c1ccc(NC(=O)CCCOc2cccc(C)c2)cc1`, for which the IC50 in assay [10] was 50 µM (inactive).
As to `CC(C)(O)/C=C/C(=O)[C@](C)(O)C1[C@H](O)C[C@@]2(C)C3CC=C4C(C[C@H](O)[C@@H](O)C4(C)C)[C@]3(C)C(=O)C[C@]12C` (stereo not given in full), the IC50 in [4] was > 80 µM (inactive).
Consider `CN(C)/C=N/c1c(C#N)cnn1-c1ncnc2sc(-c3ccccc3)cc12`, for which the AC50 in [5] is 8.06 µM (active); in [7] it was 19.1 µM (active).
Take `CC(=O)c1c(C)nc(-c2ccc(Cl)cc2)nc1/N=C/N(C)C`: in assay [10], the IC50 is 40 µM (inactive). The AC50 was > 380 µM (inactive) in assay [11] and > 20 µM (inactive) in assay [13]. Further, in [12], the EC50 is > 380 µM (inactive).
